Test system: NOMO1
Assay: cell viability relative to DMSO control; higher = less cytotoxic
Conditions: 48 h
Summary of the method: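 Viability, reported as a per-plate percentage of DMSO wells with cell-free wells as background, came from CellTiter-Glo One luminescence. Reading took place after 48 h at 37°C. Before that, NOMO1 or SEM (500 cells/well) or P12-Ichikawa (1000 cells/well) leukemia cells, adapted for at least four passages in each medium, were seeded in 1536-well plates (5 μl) and pin-dosed with library compounds in DMSO, 47 μM to 0.79 nM over 11 threefold points.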

[1] = RPMI 5 mM glucose + 10% FBS, 0.000781 µM
[2] = RPMI 5 mM glucose + 10% FBS, 0.00234 µM
[3] = RPMI 5 mM glucose + 10% FBS, 0.00702 µM
[4] = RPMI 5 mM glucose + 10% FBS, 0.0211 µM
[5] = RPMI 5 mM glucose + 10% FBS, 0.0632 µM
[6] = RPMI 5 mM glucose + 10% FBS, 0.19 µM
[7] = RPMI 5 mM glucose + 10% FBS, 0.569 µM
[8] = RPMI 5 mM glucose + 10% FBS, 1.71 µM
[9] = RPMI 5 mM glucose + 10% FBS, 5.12 µM
[10] = RPMI 5 mM glucose + 10% FBS, 15.4 µM
[11] = RPMI 5 mM glucose + 10% FBS, 46.1 µM

SMILES | cell viability [1] [%] | cell viability [2] [%] | cell viability [3] [%] | cell viability [4] [%] | cell viability [5] [%] | cell viability [6] [%] | cell viability [7] [%] | cell viability [8] [%] | cell viability [9] [%] | cell viability [10] [%] | cell viability [11] [%] | cell viability (RPMI 5 mM glucose + 10% dialyzed FBS, 0.000781 µM) [%] | cell viability (RPMI 5 mM glucose + 10% dialyzed FBS, 0.00234 µM) [%] | cell viability (RPMI 5 mM glucose + 10% dialyzed FBS, 0.00702 µM) [%] | cell viability (RPMI 5 mM glucose + 10% dialyzed FBS, 0.0211 µM) [%] | cell viability (RPMI 5 mM glucose + 10% dialyzed FBS, 0.0632 µM) [%] | cell viability (RPMI 5 mM glucose + 10% dialyzed FBS, 0.19 µM) [%] | cell viability (RPMI 5 mM glucose + 10% dialyzed FBS, 0.569 µM) [%] | cell viability (RPMI 5 mM glucose + 10% dialyzed FBS, 1.71 µM) [%] | cell viability (RPMI 5 mM glucose + 10% dialyzed FBS, 5.12 µM) [%] | cell viability (RPMI 5 mM glucose + 10% dialyzed FBS, 15.4 µM) [%] | cell viability (RPMI 5 mM glucose + 10% dialyzed FBS, 46.1 µM) [%]
Cc1coc2c1C(=O)C(=O)c1c-2ccc2c(C)cccc12 | 126 | 113 | 125 | 110 | 112 | 128 | 118 | 114 | 89.4 | 103 | 91.2 | 116 | 111 | 111 | 113 | 117 | 108 | 106 | 130 | 97.7 | 105 | 106
CC(C)N[C@@H]1CCn2c(=O)[nH]c3cccc(c32)[C@H]1O | 119 | 110 | 121 | 119 | 111 | 108 | 117 | 104 | 105 | 103 | 55.6 | – | – | – | – | – | – | – | – | – | – | –

From the supplement of paper PMC11451515
